{"source": "patent US5919457A", "about": "“TXU-5/B53-PAP antiviral biotherapeutic agent for the treatment of AIDS” (priority 1996, dated 1999)", "key": {"HIV-1 [1]": {"test_system": "HIV-1", "set-up": "species or system Hu-PBL-SCID mice", "conditions": "mouse, in vivo"}, "[2]": {"test_system": "HIV-1 isolate G-6912 (zidovudine-resistant)", "conditions": "read-out: IC50 (concentration at which 50% of the reverse transcriptase activity is inhibited); cited from earlier work"}, "[3]": {"test_system": "HIV-1 isolate G-9106 (zidovudine-resistant)", "conditions": "read-out: IC50 (concentration at which 50% of the reverse transcriptase activity is inhibited); cited from earlier work"}, "HIV-1 [4]": {"test_system": "HIV-1", "set-up": "species or system Hu-PBL-SCID mice", "conditions": "mouse, in vivo", "experimental": "Mutant C.B 17 mice are used as model systems to examine the in vivo homing, engraftment, and growth patterns of normal and malignant human hematopoictic cells. Lapidot et al., Blood, 80, 32a (1992). […] Mosier et al., Science, 251, 791 (1991). […] Mosier et al., cited supra. Hu-PBL-SCID mice were generated as described previously. Mosier et al., cited supra. Non-toxic doses of TXU-5/B53-PAP (20%-50% of LD10) were administered intraperitoneally by injecting half of the total dose as a bolus and delivering the remainder i.p. over 2 weeks using Alzet micro-osmotic pumps.\nTwo weeks after infection with HIV-1, mice were electively killed and fresh peritoneal lavage cells as well as spleen cells were isolated, cocultured with phytohemagglutinin(PHA)-stimulated human peripheral blood mononuclear cells from an HIV-1 antibody negative donor, and culture supernatants were tested every 3-4 days for a maximum of 28 days for the presence of HIV-1 antigen with a commercially available enzyme immunoassay (Abbott Laboratories, North Chicago, Ill.) that detects primarily the core p24 antigen of HIV-1, as previously described. Goudsmit et al., J. Infectious Diseases, 155, 558 (1987). In addition to this culture method, DNA was also isolated from the peritoneal lavage cells as well as splenocytes for detection of HIV-1 DNA by PCR amplification of a 115 b.p. sequence in the gag region of the HIV-1 genome using two 29-base oligonucleotide primers, SK38 and SK39, that flank the region to be amplified. Ou C-Y et al., Science, 239, 295 (1988) DNA samples were also examined for the presence of human DNA by PCR amplification of a 110-bp fragment from the first exon of the human β-globin gene using two 20-base oligonucleotide primers, PCO3 and PCO4, that flank the region to be amplified, as previously described by Uckun et al. in Blood, 79, 2201 (1992).", "remark": "listed apart in the source"}}, "note": "pIC50: −log10 of the molar value. Where “and” joins values, the source holds several entries; their conditions need not be identical. Equal entries are not always repeated.", "data": [{"compound": "Cc1cn([C@H]2C[C@H](N=[N+]=[N-])[C@@H](CO)O2)c(=O)[nH]c1=O", "note": "[ZDV, zidovudine]", "values": [{"measurement": "gp120 on CD4+ lymphocytes from the peritoneal cavity (flow cytometry)", "setting": "HIV-1 [1]", "value": "presence of gpl120 on CD4+ cells"}, {"measurement": "pIC50", "setting": "[2]", "value": 5.82}, {"measurement": "pIC50", "setting": "[3]", "value": 5.06}, {"measurement": "Hu-PBL-SCID mice HIV-1 negative", "setting": "HIV-1 [4]", "value": "3 of 10"}, {"measurement": "PCR + Cx: mice PCR-positive and culture-positive (footnote c)", "setting": "HIV-1 [4]", "value": "4/8 and 4"}, {"measurement": "PCR + Cx: mice PCR-positive but culture-negative (footnote b)", "setting": "HIV-1 [4]", "value": "4/8 and 3"}, {"measurement": "PCR Only: PCR- mice/analyzed", "setting": "HIV-1 [4]", "value": "2/2"}, {"measurement": "Peritoneal Lavage Cells PCR+ (mice positive/analyzed)", "setting": "HIV-1 [4]", "value": "7/10"}, {"measurement": "Peritoneal Lavage and Spleen Mixed Cx+ (cultures positive/analyzed)", "setting": "HIV-1 [4]", "value": "4/8"}, {"measurement": "Spleen Cells PCR+ (mice positive/analyzed)", "setting": "HIV-1 [4]", "value": "5/10"}]}]}
